Usually inhibition stands for the share of the control response that was lost under treatment. One may read the IC50 as the concentration that gives 50% inhibition.

We go through six compounds from patent publication US9242977B2, “Trk-inhibiting compound” (ONO PHARMACEUTICAL CO., LTD., priority 2012, dated 2016).

Assay type in all cases: biochemical
Assay [1] addresses c-Met (Homo sapiens (Human), UniProt P08581). Kind of assay: Enzyme inhibition activity test for kinases other than Trk (selectivity test): c-Met. As to conditions: test concentration 3 μM; read-out: Inhibition Rate (%) c-Met. The procedure: (§1) A test substance (present compound or comparative compound) was dissolved in dimethylsulfoxide and further diluted with dimethylsulfoxide to prepare a solution having a concentration of 100 times the test concentration of 3 μM. The solution was further diluted to 25-fold with an assay buffer (20 mM HEPES, 0.01% Triton X-100, 2 mM DTT, pH 7.5) to obtain a test substance solution. In a similar manner a positive control substance solution was prepared with a positive control substance.
(§2) A 4-times concentration solution (5 μL) of the test substance prepared with the assay buffer, 5 μL of a 4-times concentration solution of substrate/ATP/metal (Mg) and 10 μL of a 2-times concentration solution of kinase were mixed in a well of a polypropylene 384-well plate and allowed to react at room temperature for 1 hour. The reaction was terminated by adding 60 μL of a Termination Buffer (QuickScout Screening Assist MSA; Carna Biosciences). The substrate peptide and the phosphorylated peptide in the reaction solution were separated and quantified. The kinase reaction was assessed from the product ratio (P/(P+S)) calculated from the height (S) of the peak of the substrate peptide and the height (P) of the peak of the phosphorylated peptide. Other kinases used in the kinase selectivity experiments were, for example, Abl, c-Met, b-Raf, c-Kit and KDR. The following Table 2 indicates substrates, substrate concentrations, ATP concentrations and positive control substances used in respective kinase enzyme inhibition activity tests.
(§3) The inhibition rate was calculated from the average signal intensity of the test wells containing respective test substances provided that the average signal intensity of control wells each containing all reaction components was 0% inhibition and the average signal intensity of background wells (without addition of the enzyme) was 100% inhibition.

Assay [2] concerns the target b-Raf (Homo sapiens (Human), UniProt P15056). Kind of assay: Enzyme inhibition activity test for kinases other than Trk (selectivity test): b-Raf. As to conditions: test concentration 3 μM; read-out: Inhibition Rate (%) b-Raf. The protocol: as §1, §2, §3
Assay [3] has as its target KDR (Homo sapiens (Human), UniProt P35968). Nature of the assay: Enzyme inhibition activity test for kinases other than Trk (selectivity test): KDR. As to conditions: test concentration 3 μM; read-out: Inhibition Rate (%) KDR. The procedure: as §1, §2, §3
Assay [4] has as its target c-Kit (Homo sapiens (Human), UniProt P10721). Kind of assay: Enzyme inhibition activity test for kinases other than Trk (selectivity test): c-Kit. As to conditions: test concentration 3 μM; read-out: Inhibition Rate (%) c-Kit. The procedure: as §1, §2, §3
For assay [5], the target named is Abl (Homo sapiens (Human), UniProt P00519). Kind of assay: Enzyme inhibition activity test for kinases other than Trk (selectivity test): Abl. As to conditions: test concentration 3 μM; read-out: Inhibition Rate (%) Abl. The procedure:
as §1, §2, §3

Assay [6] concerns the target TrkA (Homo sapiens (Human), UniProt P04629). Kind of assay: Measurement of TrkA enzyme-inhibiting activity (LanthaScreen TR-FRET kinase assay). As to conditions: final ATP 150 μM, read-out: TrkA inhibitory activity (IC50; μM). The procedure: TrkA-inhibiting activity was measured according to the following method using LanthaScreen™ kinase assay reagents (Invitrogen; Fluorescein-Poly GT, LanthaScreen™ Tb-PY20 and TR-FRET Dilution Buffer), TrkA (Invitrogen), ATP (Sigma-Aldrich), a kinase reaction buffer (50 mM HEPES buffer (Sigma-Aldrich) (pH 7.5) containing 0.01% Brij35 (Sigma-Aldrich), 10 mM MgCl2 (Sigma-Aldrich) and 1 mM EGTA (Sigma-Aldrich)) and 0.5 M EDTA (pH 8.0) (Invitrogen).
The present compound was dissolved in dimethylsulfoxide (hereinafter abbreviated as DMSO) to prepare a 10 mM solution. The test compound at 10 mM was distributed into a 96-well plate and serially diluted with DMSO with the geometrical ratio of 3. The serial dilutions (DMSO solutions) were diluted with the kinase reaction buffer to 20-fold to prepare solutions of the present compound with 5-times concentrations (DMSO concentration: 5%). TrkA was diluted with the kinase reaction buffer to prepare a solution at 38.5 ng/mL (enzyme solution). Adenosine triphosphate (hereinafter abbreviated as ATP) was preliminarily diluted in distilled water to prepare a 10 mM solution which was then divided into containers and stored at −20° C. The 10 mM ATP solution and Fluorescein-Poly GT were diluted in the kinase reaction buffer to prepare a solution containing […] of ATP and 500 nM of Fluorescein-Poly GT (ATP-substrate solution). EDTA (0.5 M; pH 8.0) and LanthaScreen™ Tb-PY20 were diluted in the TR-FRET Dilution Buffer to prepare a solution containing 20 mM of EDTA and 4 nM of LanthaScreen™ Tb-PY20 (detection buffer).
The solutions of the present compound (5 μL/well) and the enzyme solution (10 μL/well) were added to a 96-half well assay plate and the plate was shaken at room temperature for 10 minutes on a plate shaker (IKA™ MTS2/4 digital microplate, IKA Japan K.K.). As a control and a blank, the kinase reaction buffer containing 5% DMSO (5 μL/well) was added in place of the solution of the present compound. As a blank, the kinase reaction buffer (10 μL/well) was added in the place of the enzyme solution. The ATP-substrate solution (10 μL/well) was then added to the plate to initiate kinase reaction and the plate was shaken in the dark at room temperature for 1 hour on the plate shaker (final concentration of TrkA: 15.4 ng/mL, final concentration of the substrate: 200 nM and final concentration of ATP: 150 μM). Kinase reaction was terminated by adding the detection buffer (25 μL/well) to the plate and the plate was shaken in the dark at room temperature for 30 minutes on the plate shaker. On an Analyst GT (Molecular Devices Japan, K.K.) the wells were irradiated with excitation light at 340 nm and the fluorescence intensities at 520 nm and 495 nm were measured. The fluorescence intensity at 520 nm for each well was divided by the fluorescence intensity at 495 nm to calculate the time resolved fluorescence resonance energy transfer (TR-FRET) ratio.
The inhibition rate (%) of the present compound was calculated according to the following Equation 1: Inhibition rate (%)={1−(AX−AB)/(AC−AB)×100 Equation 1
wherein AX: the TR-FRET ratio when the present compound is added;
AB: the TR-FRET of the blank; and
AC: the TR-FRET of the control.
The value for 50% inhibition by the present compound (IC50 value) was calculated from the inhibition curve based on the inhibition rate of the present compound at respective concentrations.

Sequence of c-Met (P08581 25-1390): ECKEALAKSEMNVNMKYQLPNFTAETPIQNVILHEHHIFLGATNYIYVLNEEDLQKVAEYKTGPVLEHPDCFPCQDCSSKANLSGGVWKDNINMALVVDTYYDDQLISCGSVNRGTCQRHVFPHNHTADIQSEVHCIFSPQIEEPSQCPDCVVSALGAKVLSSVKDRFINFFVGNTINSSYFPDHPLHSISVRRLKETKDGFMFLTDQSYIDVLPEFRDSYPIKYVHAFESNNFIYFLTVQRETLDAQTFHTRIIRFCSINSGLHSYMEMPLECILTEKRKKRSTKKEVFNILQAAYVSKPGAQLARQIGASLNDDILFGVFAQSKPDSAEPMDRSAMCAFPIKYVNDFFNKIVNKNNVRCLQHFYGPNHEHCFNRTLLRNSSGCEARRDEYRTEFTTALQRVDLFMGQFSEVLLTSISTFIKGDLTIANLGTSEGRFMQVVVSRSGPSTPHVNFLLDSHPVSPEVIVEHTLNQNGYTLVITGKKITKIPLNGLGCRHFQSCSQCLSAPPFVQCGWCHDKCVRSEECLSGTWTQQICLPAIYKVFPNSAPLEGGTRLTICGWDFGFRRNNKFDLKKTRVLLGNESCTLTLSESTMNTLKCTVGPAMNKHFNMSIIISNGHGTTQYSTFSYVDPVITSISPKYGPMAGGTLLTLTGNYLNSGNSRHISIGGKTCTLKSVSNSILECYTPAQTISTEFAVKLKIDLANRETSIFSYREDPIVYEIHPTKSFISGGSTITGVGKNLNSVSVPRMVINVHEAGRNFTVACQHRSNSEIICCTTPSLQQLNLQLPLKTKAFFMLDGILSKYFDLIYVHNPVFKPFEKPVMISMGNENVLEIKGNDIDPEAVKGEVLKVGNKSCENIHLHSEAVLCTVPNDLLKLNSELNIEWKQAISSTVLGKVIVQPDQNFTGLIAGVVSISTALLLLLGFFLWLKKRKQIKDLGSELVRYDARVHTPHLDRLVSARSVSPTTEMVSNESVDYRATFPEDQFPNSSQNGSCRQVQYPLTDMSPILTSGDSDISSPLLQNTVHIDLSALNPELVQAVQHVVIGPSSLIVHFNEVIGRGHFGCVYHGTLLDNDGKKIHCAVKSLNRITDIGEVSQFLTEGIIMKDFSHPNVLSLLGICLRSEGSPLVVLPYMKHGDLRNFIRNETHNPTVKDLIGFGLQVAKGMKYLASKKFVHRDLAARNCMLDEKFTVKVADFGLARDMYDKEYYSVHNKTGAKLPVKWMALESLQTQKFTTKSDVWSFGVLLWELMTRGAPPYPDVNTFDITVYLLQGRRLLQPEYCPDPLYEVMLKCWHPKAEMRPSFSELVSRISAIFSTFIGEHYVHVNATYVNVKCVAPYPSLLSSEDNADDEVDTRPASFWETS
Sequence of Abl (P00519 whole entry): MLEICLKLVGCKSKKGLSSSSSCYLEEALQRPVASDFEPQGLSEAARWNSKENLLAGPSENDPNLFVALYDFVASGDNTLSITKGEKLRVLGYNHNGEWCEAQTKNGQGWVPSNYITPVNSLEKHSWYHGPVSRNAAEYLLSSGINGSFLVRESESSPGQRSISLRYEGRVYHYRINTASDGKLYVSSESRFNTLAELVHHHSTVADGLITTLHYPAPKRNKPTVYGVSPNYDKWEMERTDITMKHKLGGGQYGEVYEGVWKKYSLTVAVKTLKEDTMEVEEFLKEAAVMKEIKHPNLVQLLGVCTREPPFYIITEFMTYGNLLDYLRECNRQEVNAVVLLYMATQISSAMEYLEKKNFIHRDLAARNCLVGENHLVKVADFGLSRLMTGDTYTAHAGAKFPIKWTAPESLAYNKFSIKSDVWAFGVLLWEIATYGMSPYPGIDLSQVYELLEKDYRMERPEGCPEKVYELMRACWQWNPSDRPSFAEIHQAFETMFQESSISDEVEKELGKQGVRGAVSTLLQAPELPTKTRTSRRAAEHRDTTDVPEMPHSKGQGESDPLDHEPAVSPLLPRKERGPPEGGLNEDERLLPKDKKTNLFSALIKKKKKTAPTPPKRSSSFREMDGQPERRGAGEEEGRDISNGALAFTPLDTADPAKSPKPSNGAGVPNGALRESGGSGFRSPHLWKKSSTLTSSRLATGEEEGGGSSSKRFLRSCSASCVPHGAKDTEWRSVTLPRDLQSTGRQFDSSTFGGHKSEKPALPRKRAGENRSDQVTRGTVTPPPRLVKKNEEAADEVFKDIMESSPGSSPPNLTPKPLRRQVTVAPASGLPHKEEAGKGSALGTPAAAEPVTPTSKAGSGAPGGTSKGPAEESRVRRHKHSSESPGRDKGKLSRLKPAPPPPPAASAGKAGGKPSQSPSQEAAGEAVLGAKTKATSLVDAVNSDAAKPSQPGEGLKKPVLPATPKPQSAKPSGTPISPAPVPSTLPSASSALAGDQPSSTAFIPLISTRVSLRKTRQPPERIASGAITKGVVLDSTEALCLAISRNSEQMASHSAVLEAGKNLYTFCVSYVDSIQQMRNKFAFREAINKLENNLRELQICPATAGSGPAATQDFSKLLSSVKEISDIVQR
Sequence of KDR (P35968 20-1356): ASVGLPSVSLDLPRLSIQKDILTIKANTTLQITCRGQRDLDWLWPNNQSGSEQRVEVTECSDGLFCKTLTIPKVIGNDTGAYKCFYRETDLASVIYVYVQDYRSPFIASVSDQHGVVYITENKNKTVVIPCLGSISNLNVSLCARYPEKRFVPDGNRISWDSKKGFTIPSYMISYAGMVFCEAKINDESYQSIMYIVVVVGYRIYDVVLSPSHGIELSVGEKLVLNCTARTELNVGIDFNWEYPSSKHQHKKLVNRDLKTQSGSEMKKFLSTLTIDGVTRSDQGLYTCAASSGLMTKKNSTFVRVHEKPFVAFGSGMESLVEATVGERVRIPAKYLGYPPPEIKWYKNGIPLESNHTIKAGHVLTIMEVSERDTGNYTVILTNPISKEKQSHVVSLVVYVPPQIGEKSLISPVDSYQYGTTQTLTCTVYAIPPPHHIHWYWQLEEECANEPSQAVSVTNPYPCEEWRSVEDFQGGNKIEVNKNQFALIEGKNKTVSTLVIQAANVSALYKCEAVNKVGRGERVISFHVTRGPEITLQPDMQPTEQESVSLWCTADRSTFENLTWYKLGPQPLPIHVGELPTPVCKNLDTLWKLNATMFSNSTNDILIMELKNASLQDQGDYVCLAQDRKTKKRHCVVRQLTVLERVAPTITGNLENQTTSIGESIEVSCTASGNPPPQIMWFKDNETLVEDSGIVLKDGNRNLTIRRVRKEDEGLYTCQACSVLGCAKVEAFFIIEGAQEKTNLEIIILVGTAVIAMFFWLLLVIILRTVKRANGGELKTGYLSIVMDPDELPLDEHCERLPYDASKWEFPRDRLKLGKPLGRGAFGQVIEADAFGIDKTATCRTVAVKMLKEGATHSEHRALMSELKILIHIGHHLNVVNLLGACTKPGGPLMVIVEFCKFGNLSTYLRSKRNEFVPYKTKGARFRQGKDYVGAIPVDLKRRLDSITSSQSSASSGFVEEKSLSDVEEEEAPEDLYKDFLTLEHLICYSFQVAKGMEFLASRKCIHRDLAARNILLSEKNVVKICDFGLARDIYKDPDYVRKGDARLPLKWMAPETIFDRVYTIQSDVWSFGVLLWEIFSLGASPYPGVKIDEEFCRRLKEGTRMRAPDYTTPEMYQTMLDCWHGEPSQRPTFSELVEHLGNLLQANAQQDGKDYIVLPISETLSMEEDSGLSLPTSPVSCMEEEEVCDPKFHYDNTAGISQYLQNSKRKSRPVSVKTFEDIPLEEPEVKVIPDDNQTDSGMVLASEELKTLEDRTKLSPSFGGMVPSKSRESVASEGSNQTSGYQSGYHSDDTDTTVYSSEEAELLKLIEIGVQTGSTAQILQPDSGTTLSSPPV
Sequence of c-Kit (P10721 26-976): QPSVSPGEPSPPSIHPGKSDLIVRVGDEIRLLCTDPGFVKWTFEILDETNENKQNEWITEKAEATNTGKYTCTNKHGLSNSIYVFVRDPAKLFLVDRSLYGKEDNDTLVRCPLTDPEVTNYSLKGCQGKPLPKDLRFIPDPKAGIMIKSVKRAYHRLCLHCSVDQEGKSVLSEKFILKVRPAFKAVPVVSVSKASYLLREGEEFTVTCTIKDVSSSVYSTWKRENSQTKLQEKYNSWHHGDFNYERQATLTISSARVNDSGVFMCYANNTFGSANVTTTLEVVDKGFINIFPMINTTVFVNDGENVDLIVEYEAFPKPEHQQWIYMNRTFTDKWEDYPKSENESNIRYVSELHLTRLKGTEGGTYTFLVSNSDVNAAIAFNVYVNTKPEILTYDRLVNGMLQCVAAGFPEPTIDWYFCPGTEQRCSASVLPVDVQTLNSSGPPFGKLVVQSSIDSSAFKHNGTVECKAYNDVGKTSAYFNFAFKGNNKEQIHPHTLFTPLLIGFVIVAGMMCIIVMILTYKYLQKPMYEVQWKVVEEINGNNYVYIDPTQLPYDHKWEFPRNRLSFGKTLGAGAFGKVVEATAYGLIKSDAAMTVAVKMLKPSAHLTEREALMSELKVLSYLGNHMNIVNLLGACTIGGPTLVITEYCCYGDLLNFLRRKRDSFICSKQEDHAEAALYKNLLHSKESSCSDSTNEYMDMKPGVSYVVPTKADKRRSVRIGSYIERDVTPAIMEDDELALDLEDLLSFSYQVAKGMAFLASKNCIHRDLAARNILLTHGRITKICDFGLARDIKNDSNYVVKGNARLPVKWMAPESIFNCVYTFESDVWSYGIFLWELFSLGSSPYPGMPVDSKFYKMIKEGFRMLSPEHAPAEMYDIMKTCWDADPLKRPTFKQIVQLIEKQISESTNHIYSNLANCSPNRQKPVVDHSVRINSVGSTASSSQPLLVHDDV

On to `CCNc1ncc(-c2ccc(Oc3ncc(NC(=O)Nc4cc(C(F)(F)F)cnc4-c4ccc(C)cc4)cn3)cc2)s1` [Example 23, 1-(2-{4-[2-(ethylamino)-1,3-thiazol-5-yl]phenoxy}-5-pyrimidinyl)-3-[2-(4-methylphenyl)-5-(trifluoromethyl)-3-pyridinyl]urea], for which the inhibition at 3 µM came to 6.5% in assay [1]; 23% in assay [2]; 15% in assay [3]; 31% in assay [4]; 25% in assay [5]. For the same compound, the IC50 in assay [6] amounted to 0.09 µM.
Turning to `CCNc1ncc(-c2ccc(Oc3ccc(NC(=O)Nc4cc(C(F)(F)F)cnc4-c4ccc(C)c(C)c4)cn3)cc2)s1` [Example 34, 1-[2-(3,4-dimethylphenyl)-5-(trifluoromethyl)-3-pyridinyl]-3-(6-{4-[2-(ethylamino)-1,3-thiazol-5-yl]phenoxy}-3-pyridinyl)urea], the IC50 in assay [6] worked out at 0.18 µM.
Same read-out and setting: the same measure for `CCNc1ncc(-c2ccc(Oc3ncc(NC(=O)Nc4cc(C(F)(F)F)cnc4Oc4ccccc4)cn3)cc2)s1` [Example 48, 1-(2-{4-[2-(ethylamino)-1,3-thiazol-5-yl]phenoxy}-5-pyrimidinyl)-3-[2-phenoxy-5-(trifluoromethyl)-3-pyridinyl]urea]: 0.12 µM.
Consider `O=C(Nc1cnc(Oc2ccc(-c3cnc(N4CCCC4=O)s3)cc2)nc1)Nc1cc(C(F)(F)F)cnc1-c1ccccc1` [Example 54, 1-(2-{4-[2-(2-oxo-1-pyrrolidinyl)-1,3-thiazol-5-yl]phenoxy}-5-pyrimidinyl)-3-[2-phenyl-5-(trifluoromethyl)-3-pyridinyl]urea], for which the inhibition at 3 µM in assay [1] is 0%; in assay [2], 17%; in assay [3], 2.4%; in assay [4], 7.2%; in assay [5], 8.9%. In addition, the IC50 in assay [6] is 0.04 µM.
Consider `Cc1cccc(-c2ncc(C(F)(F)F)cc2NC(=O)Nc2cnc(Oc3ccc(-c4cnc(N5CCCC5=O)s4)cc3)nc2)c1` [Example 57, 1-[2-(3-methylphenyl)-5-(trifluoromethyl)-3-pyridinyl]-3-(2-{4-[2-(2-oxo-1-pyrrolidinyl)-1,3-thiazol-5-yl]phenoxy}-5-pyrimidinyl)urea], for which the inhibition at 3 µM turned out to be 4.9% in assay [1]; 18% in assay [2]; 0% in assay [3]; 9.1% in assay [4]; 0% in assay [5]. Further, the IC50 in assay [6] stood at 0.03 µM.
`CCCNc1ncc(-c2ccc(Oc3ncc(NC(=O)Nc4cc(C(F)(F)F)ccc4Cl)cn3)cc2)s1` [Example 85-117, 1-[2-chloro-5-(trifluoromethyl)phenyl]-3-(2-{4-[2-(propylamino)-1,3-thiazol-5-yl]phenoxy}-5-pyrimidinyl)urea]: the inhibition at 3 µM in assay [1] came to 0%; in assay [2], 13%; in assay [3] it was 0%; in assay [4], 19%; in assay [5], 0%. Also, the IC50 in assay [6] worked out at 0.02 µM.
